ChEMBL document CHEMBL1240417, “QSAR studies of bioactivities of 1-(azacyclyl)-3-arylsulfonyl-1H-pyrrolo[2,3-b]pyridines as 5-HT6 receptor ligands using physicochemical descriptors and MLR and ANN-modeling” (Eur J Med Chem, 2010)

Target: 5-hydroxytryptamine receptor 6 (Homo sapiens, UniProt P50406)
Assay: Binding affinity to 5HT6 receptor

Sequence of 5-hydroxytryptamine receptor 6 (P50406 whole entry): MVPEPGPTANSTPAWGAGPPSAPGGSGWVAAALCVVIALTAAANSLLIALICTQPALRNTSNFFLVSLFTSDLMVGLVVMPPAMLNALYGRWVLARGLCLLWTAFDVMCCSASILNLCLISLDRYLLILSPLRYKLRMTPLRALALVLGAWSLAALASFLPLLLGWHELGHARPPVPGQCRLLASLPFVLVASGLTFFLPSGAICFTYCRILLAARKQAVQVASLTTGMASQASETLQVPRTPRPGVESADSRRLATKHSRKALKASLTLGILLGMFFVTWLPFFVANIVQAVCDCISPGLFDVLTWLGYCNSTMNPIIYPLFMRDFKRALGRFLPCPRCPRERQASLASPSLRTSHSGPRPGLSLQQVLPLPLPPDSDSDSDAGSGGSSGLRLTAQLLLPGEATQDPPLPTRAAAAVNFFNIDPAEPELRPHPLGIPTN

| SMILES | Ki [nM] |
| --- | --- |
| O=S(=O)(c1cn(C2CCCNC2)c2ncccc12)c1c(Cl)nc2sccn12 (centres undefined) | 0.708 |
| O=S(=O)(c1ccc(Cl)s1)c1cn(C2CCNC2)c2ncccc12 (centres undefined) | 1 |
| O=S(=O)(c1cn(C2CCNC2)c2ncccc12)c1c(Cl)nc2sccn12 (centres undefined) | 1 |
| CCN1CCCC(n2cc(S(=O)(=O)c3ccc(Cl)cc3)c3cccnc32)C1 (centres undefined) | 33.1 |

Now from value to compound:

| Ki [nM] | SMILES |
| --- | --- |
| 2 | CN1CCCC(n2cc(S(=O)(=O)c3c(Cl)nc4sccn34)c3cccnc32)C1 (centres undefined) |
| 0.708 | CCN1CCCC(n2cc(S(=O)(=O)c3c(Cl)nc4sccn34)c3cccnc32)C1 (centres undefined) |
| 1.7 | CC(C)N1CCCC(n2cc(S(=O)(=O)c3c(Cl)nc4sccn34)c3cccnc32)C1 (centres undefined) |
| 0.794 | CN1CCC(n2cc(S(=O)(=O)c3c(Cl)nc4sccn34)c3cccnc32)C1 (centres undefined) |
| 1.41 | CCN1CCC(n2cc(S(=O)(=O)c3c(Cl)nc4sccn34)c3cccnc32)C1 (centres undefined) |
